Results taken from ChEMBL document CHEMBL3991601, “The target landscape of clinical kinase drugs” (Science, 2017).
The source made the active and inactive calls.

Tests used:
[1] = target: T1, Very long-chain specific acyl-CoA dehydrogenase, mitochondrial (Homo sapiens, UniProt P49748)
T1 sequence (P49748 whole entry): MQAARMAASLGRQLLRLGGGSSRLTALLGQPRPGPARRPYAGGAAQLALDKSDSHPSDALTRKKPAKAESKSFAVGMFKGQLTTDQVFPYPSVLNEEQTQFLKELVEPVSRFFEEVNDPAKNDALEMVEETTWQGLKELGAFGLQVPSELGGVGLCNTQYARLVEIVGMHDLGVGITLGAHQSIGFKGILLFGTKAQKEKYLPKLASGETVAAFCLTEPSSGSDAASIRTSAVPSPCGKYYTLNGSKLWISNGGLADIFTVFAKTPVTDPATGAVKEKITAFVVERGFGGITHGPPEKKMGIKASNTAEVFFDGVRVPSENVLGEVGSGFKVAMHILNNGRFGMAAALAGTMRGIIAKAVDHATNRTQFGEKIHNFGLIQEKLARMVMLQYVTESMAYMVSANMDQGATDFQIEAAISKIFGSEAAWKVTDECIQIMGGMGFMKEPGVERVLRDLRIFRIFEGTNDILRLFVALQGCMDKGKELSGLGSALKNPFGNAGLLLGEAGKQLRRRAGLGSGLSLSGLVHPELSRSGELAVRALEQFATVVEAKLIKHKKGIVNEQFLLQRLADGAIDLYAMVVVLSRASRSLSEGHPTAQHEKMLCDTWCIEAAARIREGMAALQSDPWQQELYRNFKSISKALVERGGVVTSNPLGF

[2] = target: Cyclin-dependent kinase 7 (Homo sapiens, UniProt P50613)
Chain of Cyclin-dependent kinase 7 (P50613 whole entry, the tested form may be a part): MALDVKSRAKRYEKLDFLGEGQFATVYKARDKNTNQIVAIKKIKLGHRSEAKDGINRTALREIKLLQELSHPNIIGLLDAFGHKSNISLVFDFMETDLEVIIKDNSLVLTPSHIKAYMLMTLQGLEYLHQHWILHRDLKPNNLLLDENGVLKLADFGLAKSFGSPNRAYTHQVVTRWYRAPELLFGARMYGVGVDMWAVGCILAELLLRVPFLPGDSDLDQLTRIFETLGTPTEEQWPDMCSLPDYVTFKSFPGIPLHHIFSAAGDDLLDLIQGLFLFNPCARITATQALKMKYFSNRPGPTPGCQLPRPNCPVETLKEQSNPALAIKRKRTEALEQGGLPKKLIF

[3] = target: T2, Discoidin domain-containing receptor 2 (Homo sapiens, UniProt Q16832)
T2 sequence (Q16832 whole entry): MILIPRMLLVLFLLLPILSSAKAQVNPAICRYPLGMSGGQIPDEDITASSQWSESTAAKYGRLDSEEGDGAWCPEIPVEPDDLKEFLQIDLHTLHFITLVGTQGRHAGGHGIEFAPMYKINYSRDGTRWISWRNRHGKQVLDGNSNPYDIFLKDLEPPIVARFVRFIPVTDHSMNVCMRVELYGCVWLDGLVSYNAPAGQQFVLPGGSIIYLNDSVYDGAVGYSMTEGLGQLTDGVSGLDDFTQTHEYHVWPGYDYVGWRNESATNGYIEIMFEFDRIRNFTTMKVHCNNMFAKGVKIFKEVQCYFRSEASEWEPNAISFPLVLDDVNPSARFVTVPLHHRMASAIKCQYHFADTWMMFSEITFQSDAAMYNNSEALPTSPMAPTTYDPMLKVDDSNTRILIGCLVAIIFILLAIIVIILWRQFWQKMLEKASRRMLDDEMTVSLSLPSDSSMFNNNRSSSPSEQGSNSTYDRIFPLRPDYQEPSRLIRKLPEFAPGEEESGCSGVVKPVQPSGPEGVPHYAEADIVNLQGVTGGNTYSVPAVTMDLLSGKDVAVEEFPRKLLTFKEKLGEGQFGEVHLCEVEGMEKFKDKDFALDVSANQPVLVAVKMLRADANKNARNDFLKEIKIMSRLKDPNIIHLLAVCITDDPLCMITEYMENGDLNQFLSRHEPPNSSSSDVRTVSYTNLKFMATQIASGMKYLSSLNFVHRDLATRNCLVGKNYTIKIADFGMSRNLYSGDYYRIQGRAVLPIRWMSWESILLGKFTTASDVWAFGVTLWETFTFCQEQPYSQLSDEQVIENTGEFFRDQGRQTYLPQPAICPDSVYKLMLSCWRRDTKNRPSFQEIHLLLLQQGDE

[4] = target: T3, Electron transfer flavoprotein subunit beta (Homo sapiens, UniProt P38117)
T3 sequence (P38117 whole entry): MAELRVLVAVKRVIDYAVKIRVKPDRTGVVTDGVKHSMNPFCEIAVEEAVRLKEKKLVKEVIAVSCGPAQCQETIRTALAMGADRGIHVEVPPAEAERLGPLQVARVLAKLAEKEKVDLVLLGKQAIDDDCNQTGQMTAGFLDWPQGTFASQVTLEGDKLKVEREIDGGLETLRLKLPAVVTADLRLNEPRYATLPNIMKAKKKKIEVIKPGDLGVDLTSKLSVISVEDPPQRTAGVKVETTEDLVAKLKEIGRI

[5] = target: Dual specificity mitogen-activated protein kinase kinase 2 (Homo sapiens, UniProt P36507)
Chain of Dual specificity mitogen-activated protein kinase kinase 2 (P36507 whole entry): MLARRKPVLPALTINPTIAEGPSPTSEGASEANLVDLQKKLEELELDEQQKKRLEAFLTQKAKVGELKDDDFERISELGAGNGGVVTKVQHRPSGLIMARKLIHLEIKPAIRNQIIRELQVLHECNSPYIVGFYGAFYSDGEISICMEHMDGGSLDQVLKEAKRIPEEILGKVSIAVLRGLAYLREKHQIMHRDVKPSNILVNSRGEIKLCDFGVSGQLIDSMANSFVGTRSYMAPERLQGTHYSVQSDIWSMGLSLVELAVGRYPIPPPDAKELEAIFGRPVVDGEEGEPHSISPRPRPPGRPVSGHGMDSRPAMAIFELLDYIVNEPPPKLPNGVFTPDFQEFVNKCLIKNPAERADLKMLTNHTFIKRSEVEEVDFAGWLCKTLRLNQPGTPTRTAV

[6] = target: T4, Dynamin-like GTPase OPA1, mitochondrial (Homo sapiens, UniProt O60313)
T4 sequence (O60313 whole entry): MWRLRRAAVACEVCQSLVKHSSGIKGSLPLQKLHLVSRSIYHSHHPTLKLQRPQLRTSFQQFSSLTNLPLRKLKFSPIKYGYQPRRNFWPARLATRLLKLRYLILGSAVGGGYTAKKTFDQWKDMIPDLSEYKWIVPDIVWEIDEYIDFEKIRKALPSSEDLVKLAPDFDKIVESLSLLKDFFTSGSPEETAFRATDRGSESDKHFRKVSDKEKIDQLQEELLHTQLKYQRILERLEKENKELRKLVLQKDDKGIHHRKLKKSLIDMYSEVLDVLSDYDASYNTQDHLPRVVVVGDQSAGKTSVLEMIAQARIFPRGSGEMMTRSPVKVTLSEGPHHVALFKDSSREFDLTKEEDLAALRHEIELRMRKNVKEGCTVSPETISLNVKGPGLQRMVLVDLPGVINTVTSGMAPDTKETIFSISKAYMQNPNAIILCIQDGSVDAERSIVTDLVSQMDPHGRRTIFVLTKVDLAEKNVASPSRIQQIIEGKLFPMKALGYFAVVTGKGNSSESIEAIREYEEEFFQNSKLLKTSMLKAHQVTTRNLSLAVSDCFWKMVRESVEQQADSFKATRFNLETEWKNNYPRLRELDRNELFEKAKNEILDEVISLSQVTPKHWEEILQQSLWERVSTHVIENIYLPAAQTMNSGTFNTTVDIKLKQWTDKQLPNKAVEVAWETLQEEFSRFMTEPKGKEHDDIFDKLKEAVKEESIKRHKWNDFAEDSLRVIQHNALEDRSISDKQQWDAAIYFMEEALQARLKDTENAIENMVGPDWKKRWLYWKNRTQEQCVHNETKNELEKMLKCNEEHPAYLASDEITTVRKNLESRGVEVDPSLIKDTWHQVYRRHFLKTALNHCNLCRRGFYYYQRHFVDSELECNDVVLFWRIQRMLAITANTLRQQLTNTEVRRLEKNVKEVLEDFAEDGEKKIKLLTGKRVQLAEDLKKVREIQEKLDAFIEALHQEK

[7] = target: Elongation factor Tu, mitochondrial (Homo sapiens, UniProt P49411)
Note: in the data inactive means no Kd found up to 30 µM.

## O=S(=O)(c1cccc2c(O)nccc12)N1CCCNCC1 [HYDROXYFASUDIL]
[1]
  Kd: > 30 µM (inactive)
[2]
  Kd: > 30 µM (inactive)
[3]
  Kd: > 30 µM (inactive)
[4]
  Kd: > 30 µM (inactive)
[5]
  Kd: > 30 µM (inactive)
[6]
  Kd: > 30 µM (inactive)
[7]
  Kd: > 30 µM (inactive)

## CC(C)CC(=O)Nc1[nH]nc2c1CN(C(=O)C1CCN(C)CC1)C2(C)C [PHA-793887]
[1]
  Kd: > 30 µM (inactive)
[2]
  Kd: 0.008 µM (active)
[3]
  Kd: > 30 µM (inactive)
[4]
  Kd: > 30 µM (inactive)
[5]
  Kd: > 30 µM (inactive)
[6]
  Kd: > 30 µM (inactive)
[7]
  Kd: > 30 µM (inactive)

## C[C@]1(O)C[C@@H](c2nc(-c3ccc4ccc(-c5ccccc5)nc4c3)c3c(N)nccn32)C1 [LINSITINIB]
[1]
  Kd: > 30 µM (inactive)
[2]
  Kd: > 30 µM (inactive)
[3]
  Kd: > 30 µM (inactive)
[4]
  Kd: > 30 µM (inactive)
[5]
  Kd: 1.14 µM (active)
[6]
  Kd: > 30 µM (inactive)
[7]
  Kd: > 30 µM (inactive)
